Results on three compounds are retold here after ChEMBL document CHEMBL5131399, “Broadening antifungal spectrum and improving metabolic stablity based on a scaffold strategy: Design, synthesis, and evaluation of novel 4-phenyl-4,5-dihydrooxazole derivatives as potent fungistatic and fungicidal reagents” (Eur J Med Chem, 2022).

In brackets after ≈: the same amount, converted by molar mass.

One series deals with Candida albicans. Briefly: Antifungal activity against Candida albicans ATCC SC5314 assessed as fungal growth inhibition by NCCLS protocol based method. The class given is functional.
Conditions: not given
Consider `Fc1ccccc1C1(Cn2ccnc2)COC(c2ccc(-c3ccccc3)s2)=N1` (centres undefined), for which the MIC stood at 0.5 µg/mL (≈ 1.24 µM).
In the case of `OC(Cn1cncn1)(Cn1cncn1)c1ccc(F)cc1F` [FLUCONAZOLE], the MIC was found to be 0.5 µg/mL (≈ 1.63 µM).

A further series relates to Pichia kudriavzevii. In words: Antifungal activity against Candida krusei GIM2.1 assessed as fungal growth inhibition by NCCLS protocol based method. Format: functional.
Conditions: not given
As to `Fc1ccccc1C1(Cn2ccnc2)COC(c2ccc(-c3ccccc3)s2)=N1` (centres undefined), the MIC stood at 1 µg/mL (≈ 2.48 µM).
Regarding `OC(Cn1cncn1)(Cn1cncn1)c1ccc(F)cc1F` [FLUCONAZOLE], the MIC worked out at 8 µg/mL (≈ 26.1 µM).

The next series has as its system Aspergillus fumigatus. In words: Antifungal activity against Aspergillus fumigatus CGMCC3.7795 assessed as fungal growth inhibition by NCCLS protocol based method. The class given is functional.
Conditions: not given
Consider `Fc1ccccc1C1(Cn2ccnc2)COC(c2ccc(-c3ccccc3)s2)=N1` (centres undefined), for which the MIC turned out to be 8 µg/mL (≈ 19.8 µM).
Same read-out and setting: under `OC(Cn1cncn1)(Cn1cncn1)c1ccc(F)cc1F` [FLUCONAZOLE] stands over 64 µg/mL.

Tested on in the next series: not listed separately
Briefly: Cytotoxicity against human HEK293T cells assessed as inhibition of cell growth incubated for 4 hrs by MTT assay. The class given is toxicity, cell-based, HEK-293T.
Conditions: not given
With `OC(Cn1cncn1)(Cn1cncn1)c1ccc(F)cc1F` [FLUCONAZOLE], the IC50 at 4 h was over 50 µM.

The test system of the next series is Candida albicans. In words: Antifungal activity against FLC-resistant Candida albicans 100 assessed as fungal growth inhibition by NCCLS protocol based method. Format: functional.
Conditions: not given
`Fc1ccccc1C1(Cn2ccnc2)COC(c2ccc(-c3ccccc3)s2)=N1` (centres undefined): the MIC is 0.125 µg/mL (≈ 0.31 µM).
On the same count and under the same terms, the result for `OC(Cn1cncn1)(Cn1cncn1)c1ccc(F)cc1F` [FLUCONAZOLE] reads over 64 µg/mL.

A further series deals with Candida tropicalis. In words: Antifungal activity against Candida tropicalis CGMCC 2.3739 assessed as fungal growth inhibition by NCCLS protocol based method. The class given is functional.
Conditions: not given
As to `Fc1ccccc1C1(Cn2ccnc2)COC(c2ccc(-c3ccccc3)s2)=N1` (centres undefined), the MIC worked out at 0.125 µg/mL (≈ 0.31 µM).
On the same count and under the same terms, under `OC(Cn1cncn1)(Cn1cncn1)c1ccc(F)cc1F` [FLUCONAZOLE] stands 0.5 µg/mL (≈ 1.63 µM).

A further series concerns A549. Briefly: Cytotoxicity against human A549 cells assessed as inhibition of cell growth incubated for 4 hrs by MTT assay. As to conditions: A549, 4 h. Format: functional, cell-based.
With `OC(Cn1cncn1)(Cn1cncn1)c1ccc(F)cc1F` [FLUCONAZOLE], the IC50 is over 50 µM.

In the next series the test system is Candida albicans. In words: Antifungal activity against FLC-resistant Candida albicans 632 assessed as fungal growth inhibition by NCCLS protocol based method. Format: functional.
Conditions: not given
Turning to `Fc1ccccc1C1(Cn2ccnc2)COC(c2ccc(-c3ccccc3)s2)=N1` (centres undefined), the MIC is 1 µg/mL (≈ 2.48 µM).
Same read-out and setting: under `OC(Cn1cncn1)(Cn1cncn1)c1ccc(F)cc1F` [FLUCONAZOLE] stands over 64 µg/mL.

The next series has as its system Candida albicans. In words: Fungicidal activity against Candida albicans CPCC400616 assessed as minimum fungicidal concentration incubated for 48 hrs. The class given is functional.
Conditions: not given
Regarding `OC(Cn1cncn1)(Cn1cncn1)c1ccc(F)cc1F` [FLUCONAZOLE], the MFC is over 64 µg/mL.

Tested on in another series: not listed separately
In words: Metabolic stability in human liver microsomes assessed as half life preincubated for 10 mins followed by NADPH addition and measured after 5 to 60 mins by LC-MS/MS analysis. Format: ADME, Microsome. The settings on record: time 15-70 min.
As for `Cc1ccc(C(=O)C(Cn2ccnc2)NC(=O)c2ccc(-c3ccc(Cl)cc3)s2)cc1` (centres undefined), the half-life worked out at 18.6 min.

In a further series the test system is Candida albicans. Briefly: Antifungal activity against FLC-resistant Candida albicans 311 assessed as fungal growth inhibition by NCCLS protocol based method. The class given is functional.
Conditions: not given
As to `Fc1ccccc1C1(Cn2ccnc2)COC(c2ccc(-c3ccccc3)s2)=N1` (centres undefined), the MIC worked out at 0.25 µg/mL (≈ 0.62 µM).
Same read-out and setting: under `OC(Cn1cncn1)(Cn1cncn1)c1ccc(F)cc1F` [FLUCONAZOLE] stands over 64 µg/mL.

Tested on in the next series: not listed separately
In words: Metabolic stability in human microsomes assessed as intrinsic clearance preincubated for 10 mins followed by NADPH addition and measured after 5 to 60 mins by LC-MS/MS analysis. The class given is ADME, Microsome. The settings on record: time 15-70 min.
In the case of `Cc1ccc(C(=O)C(Cn2ccnc2)NC(=O)c2ccc(-c3ccc(Cl)cc3)s2)cc1` (centres undefined), the CLint is 74.6 µL/min/mg.

The test system of another series is Candida albicans. In words: Antifungal activity against FLC-resistant Candida albicans 904 assessed as fungal growth inhibition by NCCLS protocol based method. Format: functional.
Conditions: not given
For the compound `Fc1ccccc1C1(Cn2ccnc2)COC(c2ccc(-c3ccccc3)s2)=N1` (centres undefined), the MIC stood at 1 µg/mL (≈ 2.48 µM).
Same read-out and setting: under `OC(Cn1cncn1)(Cn1cncn1)c1ccc(F)cc1F` [FLUCONAZOLE] stands over 64 µg/mL.

A further series relates to Candida albicans. In words: Antifungal activity against FLC-resistant Candida albicans 901 assessed as fungal growth inhibition by NCCLS protocol based method. The class given is functional.
Conditions: not given
As for `Fc1ccccc1C1(Cn2ccnc2)COC(c2ccc(-c3ccccc3)s2)=N1` (centres undefined), the MIC was determined as 1 µg/mL (≈ 2.48 µM).
On the same count and under the same terms, the result for `OC(Cn1cncn1)(Cn1cncn1)c1ccc(F)cc1F` [FLUCONAZOLE] reads over 64 µg/mL.

A further series has as its system Candida albicans. In words: Antibiofilm activity against FLC-resistant Candida albicans CPCC400616 assessed as assessed as inhibition of biofilm formation measured at 24 hrs by XTT reduction assay. Format: functional.
Conditions: not given
With `OC(Cn1cncn1)(Cn1cncn1)c1ccc(F)cc1F` [FLUCONAZOLE], the MIC50 was over 64 µg/mL.

The test system of a further series is HepG2. In words: Cytotoxicity against human HepG2 cells assessed as inhibition of cell growth incubated for 4 hrs by MTT assay. Format: functional, cell-based. The settings on record: HepG2, 4 h.
For `OC(Cn1cncn1)(Cn1cncn1)c1ccc(F)cc1F` [FLUCONAZOLE], the IC50 is over 50 µM.

The test system of a further series is Candida albicans. In words: Antibiofilm activity against FLC-resistant Candida albicans CPCC400616 assessed as assessed as inhibition of biofilm formation measured at 18 hrs by XTT reduction assay. The class given is functional.
Conditions: not given
`OC(Cn1cncn1)(Cn1cncn1)c1ccc(F)cc1F` [FLUCONAZOLE]: the MIC50 was over 64 µg/mL.

Another series has as its system Candida albicans. In words: […] for fungicidal activity against Candida albicans CPCC400616.
Conditions: not given
The class given is functional.
In the case of `OC(Cn1cncn1)(Cn1cncn1)c1ccc(F)cc1F` [FLUCONAZOLE], the Ratio is over 128.

In the next series the test system is Candida albicans. Briefly: Antibiofilm activity against FLC-resistant Candida albicans CPCC400616 assessed as assessed as inhibition of biofilm formation measured at 6 hrs by XTT reduction assay. The class given is functional.
Conditions: not given
`OC(Cn1cncn1)(Cn1cncn1)c1ccc(F)cc1F` [FLUCONAZOLE]: the MIC50 was over 64 µg/mL.

The subject of a further series is Candida albicans. In words: Antifungal activity against Candida albicans CPCC400616 assessed as fungal growth inhibition by NCCLS protocol based method. The class given is functional.
Conditions: not given
Consider `Fc1ccccc1C1(Cn2ccnc2)COC(c2ccc(-c3ccccc3)s2)=N1` (centres undefined), for which the MIC turned out to be 0.125 µg/mL (≈ 0.31 µM).
Turning to `OC(Cn1cncn1)(Cn1cncn1)c1ccc(F)cc1F` [FLUCONAZOLE], the MIC came out at 1 µg/mL (≈ 3.27 µM).

A further series has as its system Candida parapsilosis. In words: Antifungal activity against Candida parapsilosis GIM2.190 assessed as fungal growth inhibition by NCCLS protocol based method. Format: functional. As to conditions: Lodderomyces parapsilosis.
`Fc1ccccc1C1(Cn2ccnc2)COC(c2ccc(-c3ccccc3)s2)=N1` (centres undefined): the MIC is 0.25 µg/mL (≈ 0.62 µM).
The same measure, in the same setting: the result for `OC(Cn1cncn1)(Cn1cncn1)c1ccc(F)cc1F` [FLUCONAZOLE] reads 2 µg/mL (≈ 6.53 µM).

The next series deals with Candida albicans. Briefly: Fungicidal activity against Candida albicans CPCC400616 assessed as minimum inhibitory concentration incubated for 48 hrs. Format: functional.
Conditions: not given
As for `OC(Cn1cncn1)(Cn1cncn1)c1ccc(F)cc1F` [FLUCONAZOLE], the MIC worked out at 0.5 µg/mL (≈ 1.63 µM).

A further series deals with Candida albicans. In words: Antifungal activity against FLC-resistant Candida albicans CaR assessed as fungal growth inhibition by NCCLS protocol based method. The class given is functional.
Conditions: not given
Take `Fc1ccccc1C1(Cn2ccnc2)COC(c2ccc(-c3ccccc3)s2)=N1` (centres undefined): the MIC stood at 0.125 µg/mL (≈ 0.31 µM).
Same read-out and setting: under `OC(Cn1cncn1)(Cn1cncn1)c1ccc(F)cc1F` [FLUCONAZOLE] stands over 64 µg/mL.

The subject of another series is Cryptococcus neoformans. In words: Antifungal activity against Cryptococcus neoformans CGMCC 2.3161 assessed as fungal growth inhibition by NCCLS protocol based method. Format: functional.
Conditions: not given
For the compound `Fc1ccccc1C1(Cn2ccnc2)COC(c2ccc(-c3ccccc3)s2)=N1` (centres undefined), the MIC stood at 0.5 µg/mL (≈ 1.24 µM).
The same measure, in the same setting: the result for `OC(Cn1cncn1)(Cn1cncn1)c1ccc(F)cc1F` [FLUCONAZOLE] reads 4 µg/mL (≈ 13.1 µM).

The subject of a further series is Candida albicans. In words: Antifungal activity against FLC-resistant Candida albicans 103 assessed as fungal growth inhibition by NCCLS protocol based method. The class given is functional.
Conditions: not given
Take `Fc1ccccc1C1(Cn2ccnc2)COC(c2ccc(-c3ccccc3)s2)=N1` (centres undefined): the MIC was 0.25 µg/mL (≈ 0.62 µM).
Still for that read-out and setting: under `OC(Cn1cncn1)(Cn1cncn1)c1ccc(F)cc1F` [FLUCONAZOLE] stands over 64 µg/mL.

The test system of the next series is MCF7. In words: Cytotoxicity against human MCF7 cells assessed as inhibition of cell growth incubated for 4 hrs by MTT assay. Format: functional, cell-based. As to conditions: MCF7, 4 h.
`OC(Cn1cncn1)(Cn1cncn1)c1ccc(F)cc1F` [FLUCONAZOLE]: the 50% inhibitory concentration (IC50) is over 50 µM.

The subject of the next series is Nakaseomyces glabratus. Briefly: Antifungal activity against Candida glabrata clinical isolate assessed as fungal growth inhibition by NCCLS protocol based method. Format: functional.
Conditions: not given
As for `Fc1ccccc1C1(Cn2ccnc2)COC(c2ccc(-c3ccccc3)s2)=N1` (centres undefined), the MIC turned out to be 0.25 µg/mL (≈ 0.62 µM).
Regarding `OC(Cn1cncn1)(Cn1cncn1)c1ccc(F)cc1F` [FLUCONAZOLE], the MIC amounted to 4 µg/mL (≈ 13.1 µM).

Tested on in the next series: not listed separately
In words: Metabolic stability in human liver microsomes assessed as compound remaining preincubated for 10 mins followed by NADPH addition and measured at 60 mins by LC-MS/MS analysis. The settings on record: time 70 min, read-out: Stability. The class given is ADME, Microsome.
`Cc1ccc(C(=O)C(Cn2ccnc2)NC(=O)c2ccc(-c3ccc(Cl)cc3)s2)cc1` (centres undefined): the remaining at 1 h came to 9.3%.

The subject of another series is Candida albicans. Briefly: Antibiofilm activity against FLC-resistant Candida albicans CPCC400616 assessed as assessed as inhibition of biofilm formation measured at 3 hrs by XTT reduction assay. The class given is functional.
Conditions: not given
As for `OC(Cn1cncn1)(Cn1cncn1)c1ccc(F)cc1F` [FLUCONAZOLE], the MIC50 stood at 32 µg/mL (≈ 104 µM).
